The results in this text go back to patent EP0974594A1, “Artemisinin derivatives as anti-infective agent” (The Hong Kong University of Science & Technology, priority 1998, dated 2000).

The structures appear in SMILES notation. ≈ marks a conversion by molar mass, not a printed value. Read-outs that look alike come from different tables or passages of the source.

Holding throughout (type): cell-based
Experiment [1] has as its system Neospora caninum tachyzoites. As to the kind of experiment: Screening of compounds against Neospora caninum cell cultures in vitro (microscopic evaluation of infected host cell monolayer). On the set-up: key: 0 = no effect; 1 = weak effect; 2 = full effect; T = cytotoxic. Particulars: VERO or ED host cells, evaluation 4 days after treatment. Here is the method:
(a) Screening of compounds against Neospora Caninum cell cultures in vitro.
Screening was conducted in 96-well plates (Falcon 3872). A monolayer of host cells (VERO or ED) were placed on a cell culture plate. Non-infected monolayers of cells were cultured in two 50 ml tissue culture bottles (50 cm^3 cell culture area). The cell layer was detached with trypsin-EDTA (5 ml. Gibco 45300-019) in a CO2-culture cupboard at 37°C. After 10 minutes, most of the cells were detached. The cells were transferred with a 5 ml pipette into a 50 ml centrifuge tube (Greiner, B769331) containing about 1 ml warmed fetal calf serum. After centrifugation for 5 minutes at 1500 rpm (Varifuge 3.0, Heraeus), the liquid was removed and the cell pellet suspended in RPMI medium (100 ml, 95% RPMI 1640, 2% FCS, 1% L-glutamine, 1% sodium hydrogen carbonate, 1% penicillin/streptomycin). The cell suspension was pipetted into six 96-well plates at 150 µl per well. The coated cell culture plates were placed in an incubation cupboard at 37°C under 5% CO2 for 24 hours. The cells were then infected with Neospora caninum tachyzoites at a concentration of 48,000 tachyzoites per well. This was followed by incubation at 37°C under 5% CO2 for 24 hours.
The test compounds (0.5 - 1.5 mg) were weighed into 1.5 ml eppendorf vessels and dissolved in 1 ml dimethyl sulphoxide, corresponding to a dilution of about 1 x 10^-3 g ml^-1. The medium used for further dilution consisted of 87% RPMI 1640, 10% FCS, 1% L-glutamine, 1% sodium hydrogen carbonate, 1% penicillin/streptomycin. In the first screening, concentrations of 10^-5, 10^-6 and 10^-7 g ml^-1 were used. The diluted preparations were then transferred to the cell culture plates at a volume of 150 µl per well after 24 hour infection with Neospora caninum. For the first row, untreated medium was used; this row contained infected and uninfected cells as controls. The cell plate was incubated at 37°C under 5% CO2 for 5 days. Microscopic evaluation was conducted 4 days after treatment and 5 days after infection at a magnification of 25 x 10 in an inverse microscope according to the following evaluation scheme.

The test system of a further experiment is Eimeria tenella. Put plainly: Screening of compounds against Eimeria tenella cell cultures in vitro (chick kidney cell monolayers, microscopic evaluation). To be noted: chick kidney cells, day 5 post infection. Here is the method:
(b) Screening of Compounds again Eimeria Tenella cell cultures in vitro
Cells from kidneys of 19 day old chicks are cultured as monolayers in 96-well plates (Falcon 3872) in a medium of Hanks lactalbumine hydrolysate, 5% fetal calf serum, 1% glutamine and 1% non-essential amino acids. After two days at 42°C under 5% CO2, the culture was infected with excised sporozoites of Eimeria tenella at about […] per well. Test compounds were dissolved in DMSO and diluted with culture medium to a maximum end concentration of 10µg ml^-1. The dilution steps were 1:10. On day 5 post infection, the cultures were evaluated under a microscope at 100-fold magnification and the condition of the host cells and the amount of intact schizonts and free merozoites was determined.

The subject of experiment [2] is Plasmodium Falciparum W2 Strain (Chloroquine resistant). As to the kind of experiment: In vitro screening against Plasmodium falciparum, radiolabelled hypoxanthine incorporation, W2 strain. Particulars: for IC50 / IC90: Plasmodium falciparum; for IC50: read-out: In vitro activity: IC50; for IC90: read-out: In vitro activity: IC90. The procedure: (§1) (c) In Vitro Screening against Plasmodium Falciparum
Two parasite strains - W2 resistant to chloroquine, and D6 sensitive to chloroquine but resistant to mefloquine were used.
The assay relies on incorporation of radiolabelled hypoxanthine by the parasite and inhibition of incorporation is attributed to activity of known or candidate antimalarial drugs. For each assay, proven antimalarials such as chloroquine, mefloquine, quinine, artemisinin and pyrimethamine were used as controls. The incubation period was 66 hours, and the starting parasitemia was 0.2% with 1% hematocrit. The medium was an RPMI-1640 culture with no folate or p-aminobenzoic acid. […] If a compound was submitted with no prior knowledge of activity, it was dissolved directly in dimethyl sulphoxide (DMSO), and diluted 400 fold with complete culture medium. […] These dilutions were performed automatically by a Biomek 1000 Liquid Handling System in 96-well microtiter plates. The diluted drugs were then transferred to test plates, 200 µl of parasitized erythrocytes were added, and incubated at 37°C in a controlled environment of 5% CO2, 5% O2 and 90% N2. After 42 hours, 25 µl of ^3H-hypoxanthine was added, and the plates incubated for an additional 24 hours. After 66 hours, the plates were frozen at -70°C to lyse the red cells, and then thawed and harvested onto glass fiber filter mats in a 96-well harvester. The filter mats were then counted in a scintillation counter. For each drug, the concentration response profile was determined and 50%, 90% and 10% inhibitory concentrations (IC50, IC90 and IC10) were determined by a non-linear logistic dose response analysis program.
(§2) A prescreen format can be used wherein a 3-dilution assay may be used to determine activity at high medium or low concentrations. The concentrations were selected as 50,000, 500 and 50 ng ml^-1. These were performed in duplicate on a 96-well format plate with 14 test compounds and one known (standard) compound per plate. The system was automated with a Biomek diluter for mixing and diluting the drugs, and adding drugs and parasites to a test plate.
In the prescreen format, if the […] […] If the AF has a ">", then the IC value is greater than the prescreen dilution value; thus "AF>250" means that the IC value is greater than 250 ng ml^-1 and no further screening is carried out. In such cases, values of 0.00 are entered for IC values.

Experiment [3] concerns Plasmodium Falciparum D6 Strain (Chloroquine sensitive). Put plainly: In vitro screening against Plasmodium falciparum, radiolabelled hypoxanthine incorporation, D6 strain. Particulars: for IC50 / IC90: Plasmodium falciparum; for IC50: read-out: In vitro activity: IC50; for IC90: read-out: In vitro activity: IC90.
Text: as §1
Two parasite strains - W2 resistant to chloroquine, and D6 sensitive to chloroquine but resistant to mefloquine were used. In Table IV below, the best compounds should show no cross resistance between the two strains.
The assay relies on incorporation of radiolabelled hypoxanthine by the parasite and inhibition of incorporation is attributed to activity of known or candidate antimalarial drugs. For each assay, proven antimalarials such as chloroquine, mefloquine, quinine, artemisinin and pyrimethamine were used as controls. The incubation period was 66 hours, and the starting parasitemia was 0.2% with 1% hematocrit. The medium was an RPMI-1640 culture with no folate or p-aminobenzoic acid. Albumax rather than 10% normal heat inactivated human plasma was used as, with Albumax, less protein binding is observed, and compounds elicit slightly higher activities in this model. If a compound was submitted with no prior knowledge of activity, it was dissolved directly in dimethyl sulphoxide (DMSO), and diluted 400 fold with complete culture medium. The unknown compound was started at a maximum concentration of 50,000 ng ml^-1 and sequentially diluted 2-fold for 11 times to give a concentration range of 1048 fold. These dilutions were performed automatically by a Biomek 1000 Liquid Handling System in 96-well microtiter plates. The diluted drugs were then transferred to test plates, 200 µl of parasitized erythrocytes were added, and incubated at 37°C in a controlled environment of 5% CO2, 5% O2 and 90% N2. After 42 hours, 25 µl of ^3H-hypoxanthine was added, and the plates incubated for an additional 24 hours. After 66 hours, the plates were frozen at -70°C to lyse the red cells, and then thawed and harvested onto glass fiber filter mats in a 96-well harvester. The filter mats were then counted in a scintillation counter. For each drug, the concentration response profile was determined and 50%, 90% and 10% inhibitory concentrations (IC50, IC90 and IC10) were determined by a non-linear logistic dose response analysis program.
as §2
In the prescreen format, if the ANALYSIS FIELD (AF) has a "<", then the compound was "very active" and the IC values are most likely to be below the last dilution value (in nanograms/ml), which is listed next to AF. In most cases, these compounds were run again at lower starting concentration to determine the true IC value. If the AF has a ">", then the IC value is greater than the prescreen dilution value; thus "AF>250" means that the IC value is greater than 250 ng ml^-1 and no further screening is carried out. In such cases, values of 0.00 are entered for IC values.

Where [4] appears, read: D6 Strain (Chloroquine sensitive), 66 hours incubation.

For `C[C@@H]1CC[C@H]2[C@@H](C)C(=O)O[C@@H]3O[C@@]4(C)CC[C@@H]1[C@]32OO4` [Artemisinin, artemisinin], in experiment [1] (Dose 10^-5 g/ml), the “Evaluation (observable effect)” value worked out at 0. Moreover, the “Evaluation (effectiveness)” value in the experiment with Eimeria tenella (Dose 10^-5 g/ml) is 2 (2 = active); in the experiment on Eimeria tenella (Dose 10^-6 g/ml), 1 (1 = weakly active); with Eimeria tenella (Dose 10^-7 g/ml) it was 0 (0 = inactive).
The IC50 is the concentration needed to halve the response being measured. The term IC90 denotes the concentration needed for an effect of 90%. `CC(=O)O[C@@H]1O[C@@H]2O[C@@]3(C)CC[C@H]4[C@H](C)CC[C@@H]([C@H]1C)[C@@]24OO3` [Example 1, 10-dihydroartemisinyl ethanoate]: the “Evaluation (observable effect)” value is reported as 2 in experiment [1] (Dose 10^-5 g/ml), 1 in experiment [1] (Dose 10^-6 g/ml) and 0 in experiment [1] (Dose 10^-7 g/ml). In addition, the “Evaluation (effectiveness)” value in the experiment on Eimeria tenella (Dose 10^-7 g/ml) is 1 (1 = weakly active); in the experiment with Eimeria tenella (Dose 10^-8 g/ml), 0 (0 = inactive). The IC50 is 119 ng/mL (≈ 365 nM) in experiment [2] (W2, 66 h) and 172 ng/mL (≈ 526 nM) in experiment [3] (D6, 66 h). Further, the IC90 was found to be 163 ng/mL (≈ 500 nM) in experiment [2] (W2, 66 h) and 231 ng/mL (≈ 706 nM) in experiment [3] (D6, 66 h). In addition, the “In vitro activity: (IC10)” value in experiment [2] (W2 Strain (Chloroquine resistant), 66 hours incubation) was determined as 86.88 ng/mL; in experiment [3] (setting [4]), 127.91 ng/mL.
Take `C[C@H]1[C@@H](OC(=O)c2ccccc2)O[C@@H]2O[C@@]3(C)CC[C@H]4[C@H](C)CC[C@@H]1[C@@]24OO3` [Example 2, 10β-dihydroartemisinyl benzoate]: the “Evaluation (observable effect)” value is 2 in experiment [1] (Dose 10^-5 g/ml), 1 in experiment [1] (Dose 10^-6 g/ml) and 0 in experiment [1] (Dose 10^-7 g/ml). Besides, the “Evaluation (effectiveness)” value was 2 (2 = active) in the experiment with Eimeria tenella (Dose 10^-5 g/ml), 2 (2 = active) in the experiment on Eimeria tenella (Dose 10^-6 g/ml) and 0 (0 = inactive) with Eimeria tenella (Dose 10^-7 g/ml). The IC50 in experiment [2] (W2, 66 h) was 0.07 ng/mL (≈ 0.18 nM); in experiment [3] (setting [4]), 0.03 ng/mL (≈ 0.0772 nM). In addition, the IC90 came to 0.21 ng/mL (≈ 0.541 nM) in experiment [2] (W2, 66 h) and 0.03 ng/mL (≈ 0.0772 nM) in experiment [3] (setting [4]). For the same compound, the “In vitro activity: (IC10)” value in experiment [2] (W2, 66 h) worked out at 0.03 ng/mL; in experiment [3] (setting [4]), 0.02 ng/mL.
Consider `C[C@H]1[C@@H](OC(=O)c2ccc3c(c2)C(=O)c2ccccc2C3=O)O[C@@H]2O[C@@]3(C)CC[C@H]4[C@H](C)CC[C@@H]1[C@@]24OO3` [Example 7], for which, in experiment [2] (W2, 66 h), the concentration for half-maximal inhibition (IC50) came to 0.48 ng/mL (≈ 0.926 nM), the IC90 worked out at 1.1 ng/mL (≈ 2.12 nM) and the “In vitro activity: (IC10)” value came out at 0.21 ng/mL. Further, in experiment [3] (setting [4]), the “In vitro activity: (IC10)” value was 0.27 ng/mL, the IC50 worked out at 0.44 ng/mL (≈ 0.849 nM) and the IC90 is 0.71 ng/mL (≈ 1.37 nM).
As for `C[C@H]1[C@H](OC(=O)CCC(=O)[O-])O[C@@H]2O[C@@]3(C)CC[C@H]4[C@H](C)CC[C@@H]1[C@@]24OO3.[Na+]` [Sodium Artesunate, sodium artesunate], the “Evaluation (observable effect)” value in experiment [1] (Dose 10^-5 g/ml) is on record as 2; in experiment [1] (Dose 10^-6 g/ml), 0. The “Evaluation (effectiveness)” value in the experiment with Eimeria tenella (Dose 10^-6 g/ml) was 2 (2 = active); in the experiment on Eimeria tenella (Dose 10^-7 g/ml), 2 (2 = active); with Eimeria tenella (Dose 10^-8 g/ml), 0 (0 = inactive).
